# According to patent US9180118B2, “Thiadiazolidinone derivatives” (University of Rochester, priority 2006, dated 2015):
# Where a SMILES comes first, the peptide text is derived from it. The star is where a group is joined. Cbz = O=C(OCc1ccccc1)*; CH2F = FC*
# Test system: primary AML specimens
# Experiment: Viability of primary AML specimens, Annexin V/7-AAD flow cytometry
# Format: cell-based, human
# Details: cell death kinetics
# Procedure: (§1) The cells were isolated and processed as described. […] All drug treatments were performed in triplicate. […] Total viable cell numbers were determined using a flow cytometric apoptosis assay as described. Briefly, after 18 h of treatment, specimens were labeled with anti-CD34-PE (Becton Dickinson, San Jose, Calif.) for 20 minutes. […] The total number of events collected was 100,000. The percent viable cells was defined as AnnexinV^neg/7-AAD^neg cells on total (ungated) cells and on gates set for CD34^+ populations. • [1] Jordan, C. T., et al., The interleukin-3 receptor alpha chain is a unique marker for human acute myelogenous leukemia stem cells. Leukemia, 2000. 14(10): p. […] Lansdorp, P. M. and W. Dragowska, Long-term erythropoiesis from constant numbers of CD34+ cells in serum-free cultures initiated with highly purified progenitor cells from human bone marrow. […] Guzman, M. L., et al., Nuclear factor-kappaB is constitutively activated in primitive human acute myelogenous leukemia cells. […] 98(8): p.
row,SMILES,Rapid kinetics
1,O=C1Cc2c([nH]c3ccc(Br)cc23)-c2ncccc2N1 [1-Azakenpaullone],No
2,"O=c1sn(Cc2ccccc2)c(=S)n1Cc1ccccc1 [2,4-Dibenzyl-5-oxothiadiazolidine-3-thione]",No
3,"O=C1CSC(=O)N1 [2,4-thiazolidinedione]",No
4,"O=C(CCl)c1cc(Br)c(Br)s1 [2-Chloro-1-(4,5-dibromo-thiophen-2-yl)-ethanone]",No
5,"O=C1NC(=O)C(=Cc2ccc3c(c2)OC(F)(F)O3)S1 [5-(2,2-Difluoro-benzo[1,3]dioxol-5-ylmethylene)-thiazolidine-2,4-dione]",No
6,Cc1cc(Nc2nc(-c3ccccc3)nc3ccccc23)n[nH]1 [(5-Methyl-1H-pyrazol-3-yl)-(2-phenylquinazolin-4-yl)amine],No
7,"CCOc1ccc(C=C2SC(=O)N(CCN)C2=O)cc1.Cl [-(2-Aminoethyl)-5-((4-ethoxyphenyl)methylene)-2,4-thiazolidinedione, HCl]",No
8,COc1ccc(CNC(=O)Nc2ncc([N+](=O)[O-])s2)cc1 [AR-A014418],No
9,O=C1NC(=O)C(Cc2ccc(OCCN3COc4ccccc4C3=O)cc2)S1 (stereo not drawn) [DRF 2519],No
10,Cn1cc(C2=C(c3ccc(Cl)cc3Cl)C(=O)NC2=O)c2ccccc21 [SB-216763],No
11,Nc1cccc(-c2cc3c(Oc4cccc(O)c4)ncnc3[nH]2)c1 [TWS119],No

# Same assay, conditions: pre-treated 1 h prior to 20 μM TDZD-8, viability at 24 hours
SMILES,effect of pretreatment on cell death induced by TDZD-8,abrogation of TDZD-8 induced death by pan-caspase inhibitor
"CC(=O)N[C@@H](CS)C(=O)O [NAC, N-acetyl-cysteine]",completely blocked the cell death response,
CC(NC(=O)C(NC(=O)OCc1ccccc1)C(C)C)C(=O)NC(CC(=O)O)C(=O)CF (stereo not drawn) [Z-VAD] (Cbz-Val-Ala-Asp-CH2F; configuration not given here),,no abrogation of death was observed

# Same assay, conditions: primary AML specimens
row,SMILES,Cytotoxic AML
1,O=C1Cc2c([nH]c3ccc(Br)cc23)-c2ncccc2N1 [1-Azakenpaullone],No
2,"O=c1sn(Cc2ccccc2)c(=S)n1Cc1ccccc1 [2,4-Dibenzyl-5-oxothiadiazolidine-3-thione]",No
3,"O=C1CSC(=O)N1 [2,4-thiazolidinedione]",No
4,"O=C(CCl)c1cc(Br)c(Br)s1 [2-Chloro-1-(4,5-dibromo-thiophen-2-yl)-ethanone]",Yes
5,Cc1cc(Nc2nc(-c3ccccc3)nc3ccccc23)n[nH]1 [(5-Methyl-1H-pyrazol-3-yl)-(2-phenylquinazolin-4-yl)amine],No
6,"CCOc1ccc(C=C2SC(=O)N(CCN)C2=O)cc1.Cl [-(2-Aminoethyl)-5-((4-ethoxyphenyl)methylene)-2,4-thiazolidinedione, HCl]",No
7,COc1ccc(CNC(=O)Nc2ncc([N+](=O)[O-])s2)cc1 [AR-A014418],No
8,O=C1Nc2cc(Br)ccc2/C1=C1/Nc2ccccc2/C1=N\O [BIO],No
9,O=C1NC(=O)C(Cc2ccc(OCCN3COc4ccccc4C3=O)cc2)S1 (stereo not drawn) [DRF 2519],No
10,Cn1cc(C2=C(c3ccc(Cl)cc3Cl)C(=O)NC2=O)c2ccccc21 [SB-216763],No
11,Nc1cccc(-c2cc3c(Oc4cccc(O)c4)ncnc3[nH]2)c1 [TWS119],No
12,Cc1c(C)c2c(c(C)c1O)CCC(C)(COc1ccc(CC3SC(=O)NC3=O)cc1)O2 (stereo not drawn) [Troglitazone],Yes

# Same assay, conditions: primary AML specimens; listed as 2-chloro-1-(4,5-dibromo-thiophen-2-yl-ethanone)
row,SMILES,Cytotoxic AML
1,"O=C(CCl)c1cc(Br)c(Br)s1 [2-Chloro-1-(4,5-dibromo-thiophen-2-yl)-ethanone]",could induce AML cell death

# Test system: normal specimens (BM, CB, MPB)
# Experiment: Viability of normal specimens (BM, CB, MPB), Annexin V/7-AAD
# Format: cell-based, human
# Details: normal specimens
# Procedure: as §1
row,SMILES,Cytotoxic Normal
1,O=C1Cc2c([nH]c3ccc(Br)cc23)-c2ncccc2N1 [1-Azakenpaullone],No
2,"O=c1sn(Cc2ccccc2)c(=S)n1Cc1ccccc1 [2,4-Dibenzyl-5-oxothiadiazolidine-3-thione]",No
3,"O=C1CSC(=O)N1 [2,4-thiazolidinedione]",No
4,"O=C(CCl)c1cc(Br)c(Br)s1 [2-Chloro-1-(4,5-dibromo-thiophen-2-yl)-ethanone]",Yes
5,Cc1cc(Nc2nc(-c3ccccc3)nc3ccccc23)n[nH]1 [(5-Methyl-1H-pyrazol-3-yl)-(2-phenylquinazolin-4-yl)amine],No
6,"CCOc1ccc(C=C2SC(=O)N(CCN)C2=O)cc1.Cl [-(2-Aminoethyl)-5-((4-ethoxyphenyl)methylene)-2,4-thiazolidinedione, HCl]",No
7,COc1ccc(CNC(=O)Nc2ncc([N+](=O)[O-])s2)cc1 [AR-A014418],No
8,O=C1Nc2cc(Br)ccc2/C1=C1/Nc2ccccc2/C1=N\O [BIO],No
9,O=C1NC(=O)C(Cc2ccc(OCCN3COc4ccccc4C3=O)cc2)S1 (stereo not drawn) [DRF 2519],No
10,Cn1cc(C2=C(c3ccc(Cl)cc3Cl)C(=O)NC2=O)c2ccccc21 [SB-216763],No
11,Nc1cccc(-c2cc3c(Oc4cccc(O)c4)ncnc3[nH]2)c1 [TWS119],No
12,Cc1c(C)c2c(c(C)c1O)CCC(C)(COc1ccc(CC3SC(=O)NC3=O)cc1)O2 (stereo not drawn) [Troglitazone],Yes

# Same assay, conditions: normal specimens; listed as 2-chloro-1-(4,5-dibromo-thiophen-2-yl-ethanone)
row,SMILES,Cytotoxic Normal
1,"O=C(CCl)c1cc(Br)c(Br)s1 [2-Chloro-1-(4,5-dibromo-thiophen-2-yl)-ethanone]",toxic to normal cells
